According to patent US6685851B2, “Derivatives of cycloaliphatic diamines as cosolvents for aqueous hydrophobic amines” (PRC-DeSoto International, Inc., priority 1999, dated 2004):

Columns and labels:
Type in all cases: physicochemical
[1] = Water added dropwise to 1:1 hydrophobic amine/cosolvent amine blend until turbidity (visible light scattering)
Description: To illustrate the efficiency of the present invention to solubilize various hydrophobic amines, one part by weight of various commercially available hydrophobic amines is blended with one part by weight of a cosolvent amine. Water is then added dropwise with vigorous stirring to the blend of one part hydrophobic amine and one part cosolvent amine. The parts of water added is monitored by the appearance of turbidity as measured by visible light scattering. […] Cosolvents amines A-D are those of the present invention. In order to assess the relative efficiency of the cosolvent amines of the present invention, A-D; conventional cosolvent amines, E-I and the omission of a cosolvent, J are also evaluated.

[2] = Aqueous solution of polyamidoamine with cosolvent amine, appearance and stability (Example 1); conditions: 10 parts polyamidoamine, 10 parts cosolvent, 150 parts room temperature water
Description: 10 parts of a polyamidoamine (Air Products 506 amidoamine) is added to a reactor equipped with a mechanical agitator.

bacteriorhodopsin = molecular target: T1, bacteriorhodopsin (Halobacterium salinarum, UniProt P02945); test: Dispersion of bacteriorhodopsin in aqueous cosolvent by small angle x-ray scattering (Example 3); conditions: 0.1 gram bacteriorhodopsin, 0.1 grams cosolvent, 1.1 grams water
T1 construct: A lyophilized powder of bacteriorhodopsin is obtained according to D. Oesterhett Mtds; Enzy 31, 1974, 667; made in house; host or cells: Isolated from the natural producer (Halobacterium) by the cited literature method
T1 sequence (P02945 14-262): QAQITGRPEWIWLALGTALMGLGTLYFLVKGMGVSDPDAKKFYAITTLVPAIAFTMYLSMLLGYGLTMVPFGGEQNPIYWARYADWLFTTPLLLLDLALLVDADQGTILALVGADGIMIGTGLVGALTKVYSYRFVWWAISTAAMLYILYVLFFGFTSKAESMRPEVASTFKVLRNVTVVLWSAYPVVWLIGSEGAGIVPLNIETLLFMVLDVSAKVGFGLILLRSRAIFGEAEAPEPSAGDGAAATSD
From the text: A lyophilized powder of bacteriorhodopsin is obtained according to D. Oesterhett Mtds. Enzy 31, 1974, 667. 0.1 gram of bacteriorhodopsin is mixed with 0.1 grams of 1,2 diaminocycylohexane cosolvent and 1.1 grams of water added.

[3] = 1 part Air Products 506 Amidoamine + 1 part cosolvent amine by weight
[4] = 1 part Air Products 2460 Polyamide + 1 part cosolvent amine by weight
[5] = 1 part Cardolite NC-540 Phenalkamine + 1 part cosolvent amine by weight

Parts of water added to 2 parts of amine blend yielding a clear solution [1, 3] [parts] | Parts of water added to 2 parts of amine blend yielding a clear solution [1, 4] [parts] | Parts of water added to 2 parts of amine blend yielding a clear solution [1, 5] | Appearance of aqueous solution [2] | Stability of the solution [2] | SMILES | Dispersion of bacteriorhodopsin in the aqueous cosolvent (bacteriorhodopsin)
<4 | <2 | <.5 parts | – | – | NCCCN1CCN(CCCN)CC1 [Cosolvent F, 1,4-Bis (3-aminopropyl) piperazine, reference compound] | –
<6 | 3.5 | <3.9 parts | – | – | CC(CN)CCCN (stereo not drawn) [Cosolvent E] | –
<2 | <2 | <.5 parts | – | – | NCCOCCOCCN [Cosolvent G] | –

More lines, now with the values behind:

SMILES | Parts of water added to 2 parts of amine blend yielding a clear solution [1, 3] [parts] | Parts of water added to 2 parts of amine blend yielding a clear solution [1, 4] [parts] | Parts of water added to 2 parts of amine blend yielding a clear solution [1, 5] | Appearance of aqueous solution [2] | Stability of the solution [2] | Dispersion of bacteriorhodopsin in the aqueous cosolvent (bacteriorhodopsin)
NCc1cccc(CN)c1 [Cosolvent I, m-Xylylenediamine, reference compound] | <5 | <3.75 | <.5 parts | – | – | –
NCC1CCCC(CN)C1 (stereo not drawn) [Cosolvent B, 1,3-Bis (aminomethyl) cyclohexane] | >19 | >10 | >18 parts | uniform, clear solution is formed | stable for greater than three months | –
NC1CCCCC1N (stereo not drawn) [Cosolvent C, 1,2-Diamino cyclohexane] | – | – | – | – | – | uniformly dispersed
CCCCC(N)CN (stereo not drawn) [Cosolvent H, 1,2-Hexanediamine, reference compound] | <7 | <3.6 | <3 parts | – | – | –
NC1CCCC1N (stereo not drawn) [Cosolvent D, 1,2 Diaminocyclopentane] | <5 | <5 | <3.5 parts | – | – | –
CC1(C)CC(N)CC(C)(CN)C1 (stereo not drawn) [Cosolvent A, Isophorone diamine] | >28 | >22 | >30 parts | – | – | –
